Paper PMC8588536, “Iridal-Type Triterpenoids Displaying Human Neutrophil Elastase Inhibition and Anti-Inflammatory Effects from Belamcanda chinensis” (Molecules, 2021)

Test system: NF-κB p65 in LPS-stimulated RAW264.7 cells
Assay: NF-κB p65 nuclear translocation, Western blot of nuclear and cytoplasmic fractions
Assay type: cell-based, mouse
Conditions: 1 and 3 µg/mL, n = 3, p < 0.05
Procedure: RAW264.7 cells were homogenized in a hypotonic lysis buffer and centrifuged at 142× g for 5 min at 4 °C. The resulting pellets and supernatants were used for the isolation of nuclear and cytosoplasmic fraction, respectively. The pellets were incubated on ice for 5 min with a nuclear isolation buffer and were spun at 142× g using Eppendorf centrifuge 5424 R at 4 °C for 5 min. The resulting pellets were incubated on ice for 30 min with 2% Triton nuclear isolation buffer and were spun at 12,448× g at 4 °C for 15 min. For the cytosolic fraction, the resulting supernatants in the hypotonic lysis buffer were transferred to a new 1.5 mL tube and spun at 15,401× g for 15 min at 4 °C. The resulting supernatants were centrifuged at 100,000× g at 4 °C for 60 min in an ultracentrifuge (TLA 100.3; Optima MAX-XP, Beckman Coulter, Inc., Brea, CA, USA). The proteins of nuclear and cytosolic fractions were separated on 8% SDS-PAGE gel and blotted onto polyvinylidene difluoride membranes. Equal amounts of 35 µg were analyzed by Western blotting. Briefly, the membranes were blocked with 5% fat-free dry milk and then incubated with the anti-NF-κB p65 polyclonal antibody (1:1000 dilution; Cell Signaling Technology), and anti-β-actin monoclonal antibodies (1:5000 dilution). […]

CC(C)=CCCC(C)=CCC(O)C(C)=CCCC1(C)C(CCCO)C(=C(C)C=O)CCC1(C)O (stereo not shown) [Compound 2, iridobelamal A]
nuclear translocation of p65 protein (Western blot): inhibited
